What all share (type): cell-based
For assay [1], the system named is cancer cells. Briefly: MTT test, positive controls on the different cells. The following applies: at 0.4, 0.8, 1.6, 3.2, and 6.4 μm/L. As for the experimental part:
(§1) Cell incubation: the cancer cells strains are incubated in RPMI 1640 with 10% FBS, grow along the wall at 37° C. under 5% CO2 incubator.
(§2) Sample solutions: First prepare material at 100 mM in DMSO, then diluted to DMSO 4.95% using 3% DMSO FBS solution.
(§3) MTT test: cancer cells are incubated at a density of 5×10^3 cells/well in 96 well cell Culture plate for 24 hours, then added different sample solutions for 72 hours. At the end of incubation, 5 mg/mL MTT 15 μL was added to each well and stayed for 4 hours, vacuumed the solution, added DMSO 150 μL, shaked for 10 minutes, tested at […] for the OD value in the spectrophotometer, and calculated the inhibition rate of cell proliferation.
(§4) Inhibition rate of cell proliferation=(control OD−sample OD)/control OD)*100%

For assay [2], the system named is Hela. Briefly: MTT test, inhibition of cell proliferation. Conditions: Homo sapiens, 72 hours. On the procedure: as §1, §2, §3, §4
In assay [3] the test system is L929. Briefly: MTT test, inhibition of cell proliferation. The following applies: Mus musculus, 72 hours. On the procedure:
as §1, §2, §3, §4

Assay [4] relates to A431. Briefly: MTT test, inhibition of cell proliferation. The following applies: Homo sapiens, A-431, 72 hours. On the procedure:
as §1, §2, §3, §4

For assay [5], the system named is BGC-823. Briefly: MTT test, inhibition of cell proliferation. The following applies: Homo sapiens, 72 hours. On the procedure: as §1, §2, §3, §4
Assay [6] deals with U937. Briefly: MTT test, inhibition of cell proliferation. The following applies: Homo sapiens, U-937, 72 hours. On the procedure:
as §1, §2, §3, §4

For assay [7], the system named is MCF-7. Briefly: MTT test, inhibition of cell proliferation. The following applies: Homo sapiens, MCF7, 72 h. As for the experimental part: as §1, §2, §3, §4
The test system of assay [8] is A549. Briefly: MTT test, inhibition of cell proliferation. Conditions: Homo sapiens, 72 hours. On the procedure:
as §1, §2, §3, §4

Assay [9] relates to HepG-2. Briefly: MTT test, inhibition of cell proliferation. Conditions: Homo sapiens, HepG2, 72 hours. On the procedure: as §1, §2, §3, §4
Assay [10] has as its system KB. Briefly: MTT test, inhibition of cell proliferation. Conditions: Homo sapiens, 72 h. As for the experimental part:
as §1, §2, §3, §4

Assay [11] relates to A375s-2. Briefly: MTT test, inhibition of cell proliferation. Conditions: A375-S2, 72 hours. On the procedure:
as §1, §2, §3, §4

In assay [12] the test system is Bel-7402. Briefly: MTT test, inhibition of cell proliferation. Conditions: Homo sapiens, 72 hours. On the procedure: as §1, §2, §3, §4
For assay [13], the system named is K562. Briefly: MTT test, inhibition of cell proliferation. Conditions: Homo sapiens, 72 hours. As for the experimental part:
as §1, §2, §3, §4

Assay [14] concerns HL-60. Briefly: MTT test, inhibition of cell proliferation. Conditions: Homo sapiens, 72 hours. On the procedure:
as §1, §2, §3, §4

Take `CC(=O)O[C@H]1C(=O)[C@@]2(C)[C@H]([C@H](OC(=O)c3ccccc3)[C@]3(O)C[C@H](OC(=O)[C@H](O)[C@@H](NC(=O)c4ccccc4)c4ccccc4)C(C)=C1C3(C)C)[C@]1(OC(C)=O)CO[C@@H]1C[C@@H]2O` [Paclitaxel]: the “inhibition for the different cells” value in assay [1] is “dose-dependent”.
On to `CNC(=O)c1cc(Oc2ccc(CC(=O)Nc3ccc(Cl)c(C(F)(F)F)c3)cc2)ccn1` [Compound C, 4-(4-[(4-chloro-3-trifluoromethylphenylaminocarbonyl)-methyl]phenoxy)pyridin-2-carboxylic acid methylamide], for which the IC50 in assay [2] was 11 to 30 µM; in [3], 31 to 50 µM; in [4], 11 to 30 µM; in [5] it was 11 to 30 µM; in [6] it was at most 10 µM; in assay [7] (MCF-7, first listing (r2)), 31 to 50 µM. Moreover, the 50% inhibitory concentration (IC50) in [7] (MCF-7, second listing (r6)) is 11 to 30 µM; in assay [8] it was 31 to 50 µM; in assay [9], 11 to 30 µM; in assay [10] (first listing (r12)) it was 31 to 50 µM; in assay [10] (second listing (r16)), 11 to 30 µM; in [11] it was 11 to 30 µM. Moreover, the IC50 is at most 10 µM in assay [12], 31 to 50 µM in assay [13] and at most 10 µM in [14].
For `O=P1(N(CCCl)CCCl)NCCCO1` (centres unmarked) [CYC, cyclophosphamide], the “inhibition for the different cells” value in assay [1] was “dose-dependent”.
Consider `CNC(=O)c1cc(Oc2ccc(NC(=O)Nc3nc(C)c(C(C)(C)C)s3)cc2)ccn1` [Compound A, 4-{4-[3-(5-tert-Butyl-4-methyl-thiazol-2-yl)-ureido]-phenoxy}-pyridine-2-carboxylic acid methylamide], for which the IC50 in assay [2] was 31 to 50 µM; in assay [3] it was 31 to 50 µM; in [4], 11 to 30 µM; in [5], 11 to 30 µM; in assay [6], 11 to 30 µM; in [7] (MCF-7, first listing (r2)), at most 10 µM. Besides, the IC50 was at most 10 µM in [7] (MCF-7, second listing (r6)); 31 to 50 µM in assay [8]; 11 to 30 µM in assay [9]; 11 to 30 µM in assay [10] (first listing (r12)); 11 to 30 µM in assay [10] (second listing (r16)); 31 to 50 µM in [11]. The results for the IC50 in assay [12], in assay [13] and in assay [14] were at most 10 µM, 31 to 50 µM and 11 to 30 µM, respectively.
